In one assay the target is T1, LOXL3 (Homo sapiens, UniProt P58215).
T1 sequence (P58215 26-753): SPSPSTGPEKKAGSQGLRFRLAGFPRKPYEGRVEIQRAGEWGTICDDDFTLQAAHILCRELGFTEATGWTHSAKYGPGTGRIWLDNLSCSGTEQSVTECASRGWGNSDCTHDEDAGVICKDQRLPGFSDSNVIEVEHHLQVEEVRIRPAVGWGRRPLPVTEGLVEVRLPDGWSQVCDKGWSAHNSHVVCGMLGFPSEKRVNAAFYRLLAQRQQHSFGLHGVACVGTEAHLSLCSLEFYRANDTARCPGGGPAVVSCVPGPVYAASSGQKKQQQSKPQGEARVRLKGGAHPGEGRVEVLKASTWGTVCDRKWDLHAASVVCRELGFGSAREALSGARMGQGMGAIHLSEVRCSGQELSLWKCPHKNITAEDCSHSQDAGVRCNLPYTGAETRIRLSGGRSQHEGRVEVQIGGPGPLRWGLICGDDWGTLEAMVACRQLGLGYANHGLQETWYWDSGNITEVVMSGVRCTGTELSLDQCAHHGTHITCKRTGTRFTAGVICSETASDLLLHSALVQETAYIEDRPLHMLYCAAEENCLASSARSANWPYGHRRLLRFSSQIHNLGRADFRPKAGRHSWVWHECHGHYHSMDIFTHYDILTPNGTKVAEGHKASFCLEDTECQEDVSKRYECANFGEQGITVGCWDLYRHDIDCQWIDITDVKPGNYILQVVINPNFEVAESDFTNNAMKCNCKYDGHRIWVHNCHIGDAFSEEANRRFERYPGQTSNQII
Put plainly: LOXL3 enzyme assay (Promega ROS-Glo, cadaverine substrate). It is filed as biochemical.

For another assay, the target named is T2, LOXL2 (Homo sapiens, UniProt Q9Y4K0).
T2 sequence (Q9Y4K0 26-774): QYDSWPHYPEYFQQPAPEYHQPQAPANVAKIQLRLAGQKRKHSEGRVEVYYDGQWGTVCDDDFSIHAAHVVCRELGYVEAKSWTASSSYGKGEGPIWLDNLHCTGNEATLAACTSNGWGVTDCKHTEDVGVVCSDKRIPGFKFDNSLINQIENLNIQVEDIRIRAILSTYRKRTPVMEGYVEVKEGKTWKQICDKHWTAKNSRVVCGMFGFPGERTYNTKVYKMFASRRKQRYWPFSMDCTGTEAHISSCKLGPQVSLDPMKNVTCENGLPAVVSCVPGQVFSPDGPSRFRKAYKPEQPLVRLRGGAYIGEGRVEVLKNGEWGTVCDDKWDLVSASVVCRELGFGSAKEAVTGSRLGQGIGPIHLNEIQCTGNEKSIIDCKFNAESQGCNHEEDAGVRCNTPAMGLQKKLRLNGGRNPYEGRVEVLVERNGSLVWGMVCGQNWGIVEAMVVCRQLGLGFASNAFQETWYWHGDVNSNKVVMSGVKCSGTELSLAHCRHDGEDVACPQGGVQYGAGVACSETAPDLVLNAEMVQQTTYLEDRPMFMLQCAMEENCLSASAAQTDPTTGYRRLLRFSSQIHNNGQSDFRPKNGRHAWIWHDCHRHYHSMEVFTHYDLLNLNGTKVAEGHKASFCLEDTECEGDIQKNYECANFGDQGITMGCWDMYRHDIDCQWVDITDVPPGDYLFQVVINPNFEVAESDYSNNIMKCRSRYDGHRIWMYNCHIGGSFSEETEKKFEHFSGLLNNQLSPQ
Briefly: LOXL2 enzyme assay (Promega ROS-Glo, cadaverine substrate). It is filed as biochemical. Also on record: Activity (LOXL2 activity used in the RVM model data matrix): unit not given here.

In a further assay the target is T3, SSAO (Homo sapiens, UniProt Q16853).
T3 construct: purchased Sigma
T3 sequence (Q16853 1-763): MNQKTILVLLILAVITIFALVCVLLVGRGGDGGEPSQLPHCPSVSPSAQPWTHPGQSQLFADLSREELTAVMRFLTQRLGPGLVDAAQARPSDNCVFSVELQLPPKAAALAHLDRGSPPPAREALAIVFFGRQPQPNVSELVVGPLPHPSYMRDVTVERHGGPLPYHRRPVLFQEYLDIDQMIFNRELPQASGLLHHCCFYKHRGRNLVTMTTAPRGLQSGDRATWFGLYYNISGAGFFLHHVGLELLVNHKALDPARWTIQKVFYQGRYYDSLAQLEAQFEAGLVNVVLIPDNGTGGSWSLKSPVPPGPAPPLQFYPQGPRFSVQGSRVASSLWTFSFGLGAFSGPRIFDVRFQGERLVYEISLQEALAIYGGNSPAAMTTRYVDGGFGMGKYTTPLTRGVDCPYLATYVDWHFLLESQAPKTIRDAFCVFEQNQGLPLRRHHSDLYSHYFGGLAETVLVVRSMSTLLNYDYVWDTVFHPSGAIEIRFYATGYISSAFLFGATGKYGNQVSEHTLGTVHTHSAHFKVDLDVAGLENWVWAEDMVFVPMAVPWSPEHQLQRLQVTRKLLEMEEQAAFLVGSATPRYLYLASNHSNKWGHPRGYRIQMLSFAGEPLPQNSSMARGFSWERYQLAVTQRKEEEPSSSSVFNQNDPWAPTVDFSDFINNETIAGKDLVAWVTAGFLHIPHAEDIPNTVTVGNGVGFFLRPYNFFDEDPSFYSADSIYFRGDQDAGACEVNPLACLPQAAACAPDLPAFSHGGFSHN
It counts as biochemical.

The target in the next assay is T4, LOX (Sus scrofa, UniProt P45845).
T4 sequence (P45845 1-249): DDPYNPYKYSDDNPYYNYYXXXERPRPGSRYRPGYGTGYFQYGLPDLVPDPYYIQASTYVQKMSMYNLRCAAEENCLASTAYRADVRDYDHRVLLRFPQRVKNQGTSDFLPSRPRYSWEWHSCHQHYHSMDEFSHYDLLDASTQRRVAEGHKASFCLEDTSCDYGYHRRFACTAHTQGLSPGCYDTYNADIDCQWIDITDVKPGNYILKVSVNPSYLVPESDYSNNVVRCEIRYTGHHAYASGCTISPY
Briefly: LOX enzyme assay (Promega ROS-Glo, cadaverine substrate). It counts as biochemical, pig. The conditions noted are these: Table 6; 1 h preincubation.

Molecules are shown by their SMILES. Values joined by “and” are separate entries in the source; they are usually repeats but may differ in a detail not shown here. Equal entries are not always repeated. Structures can show the parent of a compound that is named as a salt. Where two headings read alike, the source gives them in different places. Some results are limits rather than exact numbers.

Procedure for LOXL2: (§1) LOXL2 and LOXL3 were purchased from R&D Systems. LOX, LOXL2, and LOXL3 catalytic activity were determined using the Promega ROS-Glo assay kit with cadaverine dihydrochloride as substrate, BAPN as the reference inhibitor control, a preincubation time of 20 min, 1 h, or 3 h, with nine dilutions from a top concentration of 10 μM or 100 μM.
Procedure for LOXL3: as §1
Procedure for SSAO: All amine oxidase assays were performed with concentrations as above. MAO-A and MAO-B enzymes were purchased from Sigma. The catalytic activity of MAO-A and MAO-B was determined using the Promega MAO-Glo assay kit (substrate included), with clorgyline and deprenyl as reference inhibitor controls, respectively. DAO was purchased from Sigma, and the catalytic activity was determined using the Promega ROS-Glo assay kit, with aminoguanidine as the reference inhibitor control. SSAO was purchased from Sigma. SSAO catalytic activity was determined using the Promega MAO-Glo assay kit, with mofegiline as the reference inhibitor control.

As for `CS(=O)(=O)c1cc(-c2ccccc2)cc(S(=O)(=O)c2ccc(CN)s2)c1` [Compound 3a], the IC50 at LOXL3 was 13500 nM and 18500 nM. As for `NCc1ccc(S(=O)(=O)c2ccc3ccccc3c2)s1` [Compound 4], the “increase in LOXL2 potency on increasing preincubation from 20 min to 1 h” value at LOXL2 is on record as at most 5 fold. With `NCc1ncc(S(=O)(=O)c2ccc3ccccc3c2)s1` [Compound 6], the IC50 against SSAO is 47200 nM and 47100 nM. Turning to `CNCc1ncc(S(=O)(=O)c2cc(-c3ccccc3)cc(S(C)(=O)=O)c2)s1` [Compound 7b, N-Methyl-1-(5-((5-(methylsulfonyl)-[1,1′-biphenyl]-3-yl)sulfonyl)thiazol-2-yl)methanamine Hydrochloride], the IC50 on LOXL2 (read-out: LOXL2, IC50) amounted to 68300 nM. In the case of `CS(=O)(=O)c1cc(-c2ccccc2)cc([S+]([O-])c2cnc(CN)s2)c1` (stereo not drawn) [Compound 7c, (5-((5-(Methylsulfonyl)-[1,1′-biphenyl]-3-yl)sulfinyl)thiazol-2-yl)methanamine Hydrochloride], at LOXL2 (read-out: LOXL2 IC50), the IC50 is 244 nM and 236 nM. In the case of `CS(=O)(=O)c1cc(Sc2cnc(CN)s2)cc(-c2ccccc2)c1` [Compound 7d, (5-((5-(Methylsulfonyl)-[1,1′-biphenyl]-3-yl)thio)thiazol-2-yl)methanamine Hydrochloride], the IC50 on LOXL2 (read-out: LOXL2 IC50) was 233 nM; against LOX, 1310 nM and 1130 nM. In the case of `CCCS(=O)(=O)c1cnc(CN)s1` [Compound 10, (5-(Propylsulfonyl)thiazol-2-yl)methanamine Hydrochloride], the “Activity (LOXL2 activity used in the RVM model data matrix)” value on LOXL2 is 6.24. For the same molecule, the IC50 on LOXL2 (Table 3, 1 h preincubation, read-out: LOXL2 IC50) is 554 nM and 590 nM. As to `CS(=O)(=O)c1cccc(S(=O)(=O)c2cnc(CN)s2)c1` [Compound 13, (5-((3-(Methylsulfonyl)phenyl)sulfonyl)thiazol-2-yl)methanamine Hydrochloride], the IC50 at LOXL2 (read-out: LOXL2 IC50) is 184 nM and 246 nM. On the same count and under the same terms, the result for `CS(=O)(=O)c1cccc(-c2cnc(CN)s2)c1` [Compound 14, (5-(3-(Methylsulfonyl)phenyl)thiazol-2-yl)methanamine Hydrochloride] reads 414 nM and 394 nM; that for `NCc1ncc(-c2cccc(-c3ccccc3)c2)s1` [Compound 16, (5-([1,1′-Biphenyl]-3-yl)thiazol-2-yl)methanamine Hydrochloride], 1750 nM and 1600 nM.

`CS(=O)(=O)c1cc(-c2ccccc2)cc(-c2cnc(CN)s2)c1` [Compound 17, (5-(5-(Methylsulfonyl)-[1,1′-biphenyl]-3-yl)thiazol-2-yl)methanamine Hydrochloride]: the “Activity (LOXL2 activity used in the RVM model data matrix)” value on LOXL2 is 6.16. The IC50 was 652 nM and 716 nM at LOXL2 (read-out: LOXL2 IC50); 52000 nM and 46500 nM at LOX. For the molecule `Cc1ccc(-c2cc(S(C)(=O)=O)cc(S(=O)(=O)c3cnc(CN)s3)c2)cc1` [Compound 18, (5-((4′-Methyl-5-(methylsulfonyl)-[1,1′-biphenyl]-3-yl)sulfonyl)thiazol-2-yl)methanamine Hydrochloride], the IC50 at SSAO is 2700 nM and 1300 nM. Take `Cn1cc(-c2cc(Cl)cc(S(=O)(=O)c3cnc(CN)s3)c2)cn1` [Compound 21d, (5-((3-Chloro-5-(1-methyl-1H-pyrazol-4-yl)phenyl)sulfonyl)thiazol-2-yl)methanamine Hydrochloride]: the IC50 was 309 nM at LOXL2 (Activity column of RVM_model_LOXL2.csv, Type = Data matrix, input activity for the RVM model of LOXL2, read-out: Activity (LOXL2 activity used in the RVM model data matrix) (converted)) and 280 nM on LOXL2 (read-out: LOXL2 IC50).

The values above are taken from PMC7073924, “2-Aminomethylene-5-sulfonylthiazole Inhibitors of Lysyl Oxidase (LOX) and LOXL2 Show Significant Efficacy in Delaying Tumor Growth” (Journal of Medicinal Chemistry, 2019).
